The subject of one data set is C57Bl/6J males. The data set is described as follows: Social interaction test after chronic social subjugation. The class given is in vivo, mice. The source says: Anti-depressant Effect in the Social Interaction Test. […] A rapid subjugation paradigm in mice lead to diminished social interaction behavior, where the dependent measures are distance traveled and time in the Interaction Zone. A 28-day treatment regimen with chlordiazepoxide (CDP), a standard anxiolytic, had no effect on deficits produced by chronic subordination. Additional details are described in Berton et al. Essential role of BDNF in the mesolimbic dopamine pathway in social defeat stress. Science 311(5762):864-8 (Feb. 10, 2006).
Briefly, C57Bl/6J males are defeated daily for 10 days by resident, highly aggressive CF-1 males. After 5 minutes of direct exposure, a perforated plastic partition is inserted into the cage that allowed olfactory and visual contact without physical defeat for the remaining 23 hr 55 min each day. The C57 males are exposed to a different resident male in a different cage each day to increase the stress of the procedure (it is observed that all CF-1 males attacked the intruder each day). At the end of the 10 day defeat procedure, the C57 males are tested in an open field apparatus during the dark phase. A dominant male is caged in an area of the open field apparatus termed the “social interaction zone.” Time and distance traveled in the zone are recorded. The C57 males are then divided randomly among the following treatments: AVN246-HCl (2 mg/kg), saline vehicle (0.45%), or chlordiazepoxide (10 mg/kg). Treatments are given daily (i.p.) for 28 days and the animals are retested. Behavioral changes are determined by calculating difference scores (Post-Pretest) and these scores are analyzed.

In a further data set the test system is human brain. The data set is described as follows: fMRI BOLD imaging of test subjects given intranasal AVP (neurodegenerative disease model), emotional faces task. The class given is in vivo. Particulars: following IN-AVP, compared to placebo. As for the experimental part:
Neurodegenerative disease (ND) model. Test subjects are randomized to an ND model group (for example, n=15), and a baseline control group (for example, n=14). The ND model group is administered intranasal arginine vasopressin (IN-AVP), 40 IU Pitressin (JHP Pharmaceuticals) in a sterile aqueous solution. IN-AVP doses are administered in 3 mL intranasal atomizers (MAD300; Wolfe Tory Medical, Salt Lake City) 45 minutes prior to fMRI imaging. The baseline control group is administered intranasal vehicle only. All test subjects are evaluated by fMRI imaging.
fMRI imaging. Data are acquired with a Philips Achieva Quasar dual 16 Channel 3T MRI scanner at the University of Chicago Brain Research Imaging Center using a reverse spiral imaging sequence to minimize ventral brain signal dropout. […] Categories include: angry faces, neutral faces, happy faces, and a fixation point. Test subjects are given the “implicit” task of identifying the gender of each image by button press. Statistical parametric maps are generated based on pre-processed 3 mm^3 images that are spatially smoothed with an 8 mm kernel, bandpass filtered to remove drift, checked for excessive movement, and movement-corrected. Images from each individual are warped to an echoplanar image template in Montreal Neurological Institute space. Voxelwise whole brain analysis is conducted on data thresholded at >10 contiguous voxels, with small volume correction p<0.05, to examine effects of test compound versus placebo on BOLD activity in a priori regions of interest (ROI). ROIs of the identified clusters of BOLD differences are extracted as parameter estimates of average BOLD signal intensity in anatomically defined substructures and exported into SPSS (IBM; Armont, N.Y.) for ANCOVA, covarying for baseline parameter estimates in matching ROIs. Extracted parameter estimates of a priori ROIs are also examined with RM-ANOVA in SPSS with the within subjects factor and between subjects factors of all combinations of test compound versus placebo, and IN-AVP versus intranasal placebo. Comparisons are made between emotion conditions (angry faces) and various neutral conditions (neutral faces, happy faces, fixation points). Comparisons are also made between emotion conditions (neutral faces) and various neutral conditions (happy faces, fixation points).
Neuropsychiatric symptom treatment with vasopressin antagonists. A first group of test subjects in a baseline control group receiving intranasal placebo is randomized to test compound or placebo. A second group of test subjects in a ND model group receiving IN-AVP is randomized to test compound or placebo. Test compound, such as SRX228, SRX246, SRX251, SRX296, or SRX576, or placebo is administered in blinded form for 5-10 days (mean 7.3+/−1.3 days; minimum 5 days; […]) prior to fMRI. Alternatively, test compound, such as SRX228, SRX246, SRX251, SRX296, and SRX576, or placebo is administered in blinded form after IN-AVP or intranasal placebo administration, and prior to fMRI. […] For example, test compound is SRX246 (n=15; 80, 120, or 160 mg po bid) versus placebo (n=14) in oral capsules; or test compound is SRX251 (n=15; 80, 120, or 160 mg po bid) versus placebo (n=14) in oral capsules.

A further data set can be described thus: Pharmacokinetics. The class given is in vivo. The note with it: b.i.d. dosing. From the text: Pharmacokinetics. Compounds described herein are rapidly absorbed after oral administration. Compounds described herein cross the blood-brain-barrier and achieve therapeutically effective concentrations in the CNS. Compounds described herein may be dosed according to a wide variety of protocols, including but not limited to q.d., b.i.d., and the like.

A further data set concerns awake rats. The data set is described as follows: Resident-intruder model of stress and aggression in rats, awake fMRI neuroimaging. The class given is in vivo, rat. The note with it: for stress/arousal response in amygdala, cortex, hippocampus and thalamus: pretreatment 5 mg/kg 90 minutes before test session, mate + intruder. From the text: Resident-intruder model of stress and aggression in rats. Neuroimaging is used to assess the blockade of stress/arousal with test compound compared to control. The effect of AVN251-HCl on functional circuitry was examined using the imaging method for awake rats. Additional details of the assay are described in Ferris et al. Imaging the neural circuitry and chemical control of aggressive motivation.
Male rats in the company of a female cage mate piloerect in the presence of a male intruder. Piloerection is a sign of stress and aggressive intent and is associated with activation of stress/arousal circuits in the brain. Stress circuit activation in response to an intruder male is assessed by obtaining brain scans viewed from a caudal/dorsal perspective as translucent shells. The localization of activated voxels is mapped as 3D volumes of activation, which are composed of 10 subjects each. Once fully registered and segmented, the statistical responses for each subject are averaged on a voxel-by-voxel basis. Those averaged voxels exceeding a 2.0% threshold are shown in their appropriate spatial location. Functional images are acquired on awake rats at 4.7 T.
Resident male rats from six male/female pairs are imaged while fully awake, and presented with their mate, or their mate+an intruder, a highly stressful stimulus. […] The total volume of brain activation for resident males confronted with their mate alone, mate plus intruder, and mate plus intruder in the presence of AVN251-HCl are viewed as 3D models.
Awake rats are imaged when presented with their mate, or their mate+an intruder. […] In each scan, the dark shaded areas represent activation of vasopressin receptor signaling.

For data set [1], the system named is Adult male Long Evans rats. The data set is described as follows: Light/dark shuttle box. The class given is in vivo, rat. As for the experimental part: Anxiolytic Effect in the Light/Dark Shuttle Box. The light/dark shuttle box is a standard and well characterized assay for anxiolytic effects of a test compound. Rats naturally avoid the light side of the box because it is stressful. Increased time on the light side by the treatment group compared to control reflects an anxiolytic effect (Bourin and Hascoet, 2003). Adult male Long Evans rats are administered AVN251 (0.1-2 mg/kg) by oral gavage 90 min prior to testing in a light/dark shuttle box.

Another data set deals with T1, human V1a receptor (Homo sapiens, UniProt P37288).
T1 construct: host or cells: CHO cells (hV1a cell line)
T1 sequence (P37288 whole entry): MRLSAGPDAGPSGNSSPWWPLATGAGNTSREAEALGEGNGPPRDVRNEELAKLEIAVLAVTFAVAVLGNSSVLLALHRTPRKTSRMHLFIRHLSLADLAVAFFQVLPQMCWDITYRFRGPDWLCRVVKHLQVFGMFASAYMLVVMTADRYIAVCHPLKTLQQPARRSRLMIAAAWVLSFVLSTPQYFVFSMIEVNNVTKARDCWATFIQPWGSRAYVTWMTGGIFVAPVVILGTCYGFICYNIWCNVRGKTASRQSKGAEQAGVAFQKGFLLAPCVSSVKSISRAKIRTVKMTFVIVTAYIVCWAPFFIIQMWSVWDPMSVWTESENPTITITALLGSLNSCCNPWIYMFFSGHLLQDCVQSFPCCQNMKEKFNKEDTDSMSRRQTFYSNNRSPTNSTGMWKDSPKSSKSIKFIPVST
The data set is described as follows: Human vasopressin V1a receptor binding assay (3H-AVP competition, hV1a CHO cells). In outline:
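Whole CHO cells expressing hV1a were incubated with 1 nM 3H-AVP (as printed "InM") and 10-fold dilutions of compound in HEPES/BSA/DMEM buffer, pH 7.0, for 45 min at 37 °C. Non-specific binding was defined with 100 nM cold AVP. Bound radioactivity was SDS-solubilised and counted by scintillation; IC50 from curve fitting.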

Where [2] appears, read: difference score (Post-Pretest), daily i.p. for 28 days.

Structures are written as SMILES. Read-outs that look alike come from different tables or passages of the source.

In the case of `CNC1=Nc2ccc(Cl)cc2C(c2ccccc2)=[N+]([O-])C1` [CDP, chlordiazepoxide], the “effect on social interaction deficits after chronic subordination” value with C57Bl/6J males (28-day treatment) was “no effect”. For the same compound, in the data set with C57Bl/6J males (setting [2]), the “Distance (traveled in the interaction zone)” value is 1.0 ± 5 and the “Time (in the interaction zone)” value is 0.0 ± 5.
With `C[C@@H](NC(=O)[C@@H](CC(=O)N1CCC(N2CCCCC2)CC1)N1C(=O)[C@@H](N2C(=O)OC[C@@H]2c2ccccc2)[C@H]1/C=C/c1ccccc1)c1ccccc1` [Example 224, 2(R)-[[4-(Piperidinyl)piperidinyl]carbonylmethyl]-2-[3(S)-(4(S)-phenyloxazolidin-2-on-3-yl)-4(R)-(2-styryl)azetidin-2-on-1-yl]acetic acid N—[(R)-α-methylbenzyl]amide], the “BOLD activation signal in anterior cingulate cortex and medial prefrontal cortex” value in the data set with human brain (posttreatment, angry faces versus happy faces) is listed as “significantly decreases”. Also, the “BOLD activation signal in temporoparietal cortex (Brodmann Area 39) and amygdala” value with human brain (posttreatment, angry faces versus happy faces, p<0.05) was “significantly decreases”; in the data set with human brain (pretreatment, angry faces versus fixation point, p<0.001) it was “significantly decreases”. Also, the “BOLD activation signal in medial prefrontal cortex” value in the data set with human brain (pretreatment, angry faces versus fixation point, p<0.005) was “significantly decreases”. Also, the “cortical reactivity to angry faces in anterior cingulate cortex and medial superior prefrontal cortex” value in the data set with human brain (pretreatment) is “significantly attenuated”. The T1/2 entry in the data set “Pharmacokinetics” was “improved”. The accumulation in the data set “Pharmacokinetics” is reported as 1.7 fold. In the data set with awake rats (listed as AVN246), the “stress/arousal response in amygdala, cortex, hippocampus and thalamus” value was “blocked the stress/arousal response”.
As for `CN(Cc1cccc(C(F)(F)F)c1)C(=O)[C@@H](CC(=O)N1CCC(N2CCCCC2)CC1)N1C(=O)[C@@H](N2C(=O)OC[C@@H]2c2ccccc2)[C@H]1/C=C/c1ccccc1` [Example 225, 2(R)-[[4-(Piperidinyl)piperidinyl]carbonylmethyl]-2-[3(S)-(4(S)-phenyloxazolidin-2-on-3-yl)-4(R)-(2-styryl)azetidin-2-on-1-yl]acetic acid N-methyl-N-(3-trifluoromethylbenzyl)amide], the “anxiety compared to vehicle” value in data set [1] (0.1-2 mg/kg oral gavage 90 min prior to testing) was “dose dependent decrease in anxiety”. The “light-dark entries (FIG. 6C)” value in data set [1] (1 or 2 mg/kg) is on record as “more light-dark entries”. Besides, in data set [1] (1 or 2 mg/kg, p<0.01), the “time in the dark (FIG. 6B)” value is given as “less time in the dark” and the “time in the light (FIG. 6A)” value was “more time in the light”. Also, the inhibition constant Ki on human V1a receptor (3H-AVP competition, CHO cells expressing human V1a, read-out: V1a Ki) came to 0.66 nM. Also, on human V1a receptor (receptor selectivity table, read-out: inhibition data Ki, V1a), the Ki was determined as 0.66 nM. Moreover, in the data set on awake rats (amygdala, cortex, hippocampus, thalamus, mate+intruder), the “activation of vasopressin receptor signaling in brain scans (FIG. 4 vs FIG. 3)” value is recorded as “lower activation of vasopressin receptor signaling than the untreated controls”. The “stress/arousal response in amygdala, cortex, hippocampus and thalamus” value in the data set with awake rats (listed as AVN251) was “blocked the stress/arousal response”.
As to `CNCCC(Oc1ccc(C(F)(F)F)cc1)c1ccccc1` (stereo not drawn) [fluoxetine, reference compound], the “sexual motivation / mesocorticolimbic dopamine reward system activation” value in the data set on awake rats (presentation of novel receptive female) is given as “markedly diminishes activation of this circuit”. The “stress circuit activation (BOLD), mate plus intruder” value in the data set on awake rats (resident male rats, 5 mg/kg oral gavage) was “decreased activation of both the stress circuits and the mesocorticolimbic dopamine reward system”.

Values taken from patent US11319306B2, “Compositions and methods for treating neurodegenerative diseases” (Azevan Pharmaceuticals, Inc., priority 2014, dated 2022).
